Measurements published in patent publication US20210113492A1, “METHOD FOR INHIBITING PROLIFERATION AND METASTASIS OF CANCER CELLS BY USING NAPHTHOQUINONE DERIVATIVE” (National Tsing Hua University, priority 2019, published 2021).
Converted amounts (≈) assume the structure as drawn.

How the values were obtained:
[1] = test system: human non-small cell lung carcinoma cells (H1299); assay: Boyden chamber invasion assay, H1299; assay type: cell-based; conditions: 2.5, 5 and 10 μM, 24 h, dose dependency (FIG. 2C)
Method: (§1) Cells were harvested by […] and resuspended in a serum-free medium with 0.1% BSA. Then, […] of cell suspension (2×10^5 cells) was seeded into the upper insert of SPLInsert with Polyethylene terephthalate (PET) membrane (pore size: 8.0 μm) (SPL Lifesciences, Korea) pre-coated with matrigel (BD Biosciences, San Jose, Calif.). The bottom well of 24-well plate of SPLInsert was filled with cell medium containing 10% FBS with different concentrations of isoplumbagin (5, 7.5 and 10 μM, Experimental group of oral squamous cell carcinoma cells (OC3-IV2); 2.5, 5 and 10 μM, Experimental groups of human primary glioblastoma cells (U87), human non-small cell lung carcinoma cells (H1299), human prostate cancer cells (PC3) and human cervical cancer cells (Hela)) or without isoplumbagin (DMSO added). […] Number of cells was counted using Image J. Relative invasion ability was calculated as cell number per area.
(§2) FIGS. 2A-2E show the inhibitory effect of different doses of isoplumbagin on invasion for oral squamous cell carcinoma cells (OC3-IV2), human primary glioblastoma cells (U87), human non-small cell lung carcinoma cells (H1299), prostate cancer cells (PC3) and cervical cancer cells (Hela) assessed with the Boyden chamber assays. *Compared with solvent control (DMSO). […]

[2] = test system: human primary glioblastoma cells (U87); assay: Boyden chamber invasion assay, U87; assay type: cell-based; conditions: 2.5, 5 and 10 μM, 24 h, no dose dependency (FIG. 2B)
Method: as §1, §2

[3] = test system: oral squamous cell carcinoma cells (OC3-IV2); assay: MTT survival assay, OC3-IV2; assay type: cell-based; conditions: Homo sapiens, 48 h, read-out: IC50, survival rate
Method: According to the present invention, human oral cancer cell line OC3-IV2 cells (Lin S C et al, J Oral Pathol Med. 2004 February; 33(2):79-86 and Lu Y C et al, Cancer Prey Res (Phila). 2012 April; 5(4):665-74) were cultured in a 1:1 ratio of Dulbecco's modified Eagle medium (DMEM; Invitrogen) and keratinocyte serum-free medium (KSFM; Invitrogen) containing 10% fetal bovine serum (FBS; Invitrogen, Carlsbad, Calif., USA), 1% L-glutamine (L-Gln, Invitrogen) and 1% antibiotic-antimycotic (AA, Invitrogen). Cells were maintained in a humidified atmosphere containing 5% CO2 at 37° C., and the culture medium was replaced every 2 days.
Isoplumbagin (AKOS006277326, acquired from AKos GmbH, Steinen, Germany) was dissolved in dimethyl sulfoxide (DMSO) and added to the medium, so that the final concentration of DMSO was less than 0.1%. The survival rate of isoplumbagin on OC3-IV2, U87, H1299 and PC3 cell lines was determined using the 3-(4,5-dimethylthiazol-2-yl)-2,5-diphenyltetrazolium bromide (MTT; Sigma-Aldrich) assays. 3×10^3 cells/well were seeded in 96-well plates. After incubation for 24 h, cells were treated with isoplumbagin at various concentrations (0, 1, 5, 10, 25, 50 and 100 μM) and incubated for a further 48 h. At the end of treatment, 10 μL 5 mg/mL MTT was added to each well. […] The absorbance of dissolved formazan was measured at 550 nm wavelengths by a spectrophotometer. […]

[4] = target: T1, NQO1 (Homo sapiens, UniProt P15559); assay: NQO1 enzymatic activity assay (substrate reduction with NADH and WST1); assay type: biochemical; conditions: cytosolic fractions of OC3-IV2 cells; isoplumbagin 5 μM and 10 μM, menadione 1X and 2X
T1 construct: endogenous in cells; host or cells: OC3-IV2 (human oral squamous cell carcinoma), cytosolic fraction / lysate supernatant
Method: FIG. 4 proves that isoplumbagin is a substrate of NQO1. The cytosolic fractions of OC3-IV2 cells were used for the NQO1 enzymatic activity assay. The NQO1 enzyme activity was calculated by measuring the simultaneous reduction of menadione or isoplumbagin with cofactor NADH and WST1 (a highly sensitive tetrazolium reagent) which leads to increased absorbance at 450 nm. NQO1 activity assay kit (#ab184867) was purchased from Abcam (Cambridge, Mass., USA). OC3-IV2 cells were lysed with 1X extraction buffer containing 1 mM phenylmethylsulfonyl fluoride (PMSF) for 15 min on ice, and then centrifuged at 17,000×g at 4° C. for 20 min. The supernatant was collected and then the protein concentration of each sample was determined by BCA assays (Santa Cruz Biotechnology). Diluted sample and reaction buffer were added into 96-wells plate containing menadione (1X and 2X) or different concentrations of isoplumbagin (5 μM and 10 μM) with cofactor NADH and WST1. The absorbance of reduced WST1 was measured at 450 nm wavelengths by a spectrophotometer. Data from three independent experiments are presented as mean ±SEM (*P<0.05 compared with no substrate, paired Student's t-test).

T1 sequence (P15559 whole entry): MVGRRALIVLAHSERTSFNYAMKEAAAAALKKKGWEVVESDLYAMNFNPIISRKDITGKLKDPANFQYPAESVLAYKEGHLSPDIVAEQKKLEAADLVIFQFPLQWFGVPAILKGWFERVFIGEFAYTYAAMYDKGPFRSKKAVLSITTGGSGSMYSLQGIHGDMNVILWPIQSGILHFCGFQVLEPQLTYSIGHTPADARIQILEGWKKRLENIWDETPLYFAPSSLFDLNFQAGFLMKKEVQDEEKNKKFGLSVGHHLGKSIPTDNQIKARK

## CC1=CC(=O)c2cccc(O)c2C1=O [isoplumbagin, 5-hydroxy-3-methyl-1,4-naphthoquinone]
[1]
  cancer cells migrating through the membrane (invasion): decrease significantly
[2]
  cancer cells migrating through the membrane (invasion): decrease significantly
[3]
  IC50: 1.02 µg/mL (≈ 5.42 µM)
[4]
  substrate of NQO1 (reduction with NADH and WST1, absorbance at 450 nm): substrates of NQO1
